Test system: health-associated QOL in a human
Assay: SF-36 health-associated QOL assessment in clinical tests A and B
Format: in vivo
Parameters: key to General health / Vitality / Mental health: SF-36 subscale score; higher score = better health state
Conditions: for Everyday role function (mental) / Everyday role function (physical) / General health / Mental health / Physical function / Vitality: mean ± SD
Source text: SF-36 is known as a QOL assessment method associated with health, wherein SF-36 (MOS 36-Item Short-Form Health Survey) is a self-report type health state questionnaire that can rate eight health concepts (physical function, everyday role function (physical), body pain, general health, vitality, social function, everyday role function (mental) and mental health) as scores. A high score of each health concept (subscale) in SF-36 is interpreted as shown below. • Physical function . . . Capable of carrying out every type of activity including vigorous activity. • Everyday role function (physical) . . . There was no physical problem when carrying out work or normal activity during the past month. • Body pain . . . There was no body pain at all during the past month and usual work was not interfered by body pain at all. • General health . . . Health state is very good. • Vitality . . . Always full of energy during the past month. • Social life function . . . The usual social interactions with family, friends, neighbors and other companions were not at all interfered by any physical or psychological reason. • Everyday role function (mental) . . . There was no psychological problem when carrying out work or normal activity during the past month. • Mental health . . . The subject was in a calm, happy and peaceful mood during the past month.
Two types of placebo-controlled randomized double-blind two-group parallel comparison tests were carried out as clinical tests. […] Specifically, capsules comprising 100 mg of dextrin per capsule were used as the placebo food.
The screening examination was carried out to select 60 subjects for each test (a total of 120 subjects). MMSE (Mini Mental State Examination) is an examination for assessing the degree of progression of dementia or the like based on the score thereof with 30 as the perfect score, wherein dementia is suspected with a score of 23 or lower.
The total of 120 subjects were randomly divided into test A active group, test A placebo group, test B active group and test B placebo group with 30 subjects in each group. Each subject of the test A active group ingested two capsules of the active food, each subject of the test A placebo group ingested two capsules of the placebo food, each subject of the test B active group ingested one capsule of the active food and each subject of the test B placebo group ingested one capsule of the placebo food.
Each subject followed the schedule shown in the table below and ingested one or two of the assigned capsules together with water for 12 weeks from two weeks after the initial screening examination. All subjects had no particular instruction during the ingestion period and freely took their meals.
In addition, SF-36 was practiced as health-associated QOL assessment. Regarding SF-36, examination was carried out a total of four times, which are before starting test food ingestion, after four weeks of ingestion, after eight weeks of ingestion and after twelve weeks of ingestion.

[1] = test A 200 mg, before ingestion
[2] = test B 100 mg, before ingestion

## NCCCC(=O)O [GABA, γ-aminobutyric acid]
Test A 200 mg, 4 W
  Body pain: difference between active food and placebo food groups: −2.1
  Everyday role function (mental): difference between active food and placebo food groups: 1.9
  Everyday role function (physical): difference between active food and placebo food groups: 2.8
  General health: difference between active food and placebo food groups: 0.1
  Mental health: difference between active food and placebo food groups: 3.6
  Physical function: difference between active food and placebo food groups: 0.4
  Social life function: difference between active food and placebo food groups: 1.1
  Vitality: difference between active food and placebo food groups: 5.5
Test A 200 mg, 4 w
  Everyday role function (mental): 53.4 ± 6.0
  Everyday role function (physical): 54.3 ± 3.5
  General health: 57.2 ± 7.9
  Mental health: 56.0 ± 6.7
  Physical function: 53.8 ± 6.2
  Vitality: 56.1 ± 7.3
Test A 200 mg, 8 W
  Body pain: difference between active food and placebo food groups: −2.9
  Everyday role function (mental): difference between active food and placebo food groups: 1.1
  Everyday role function (physical): difference between active food and placebo food groups: 3.3
  General health: difference between active food and placebo food groups: 2.5
  Mental health: difference between active food and placebo food groups: 3.5
  Physical function: difference between active food and placebo food groups: −0.7
  Social life function: difference between active food and placebo food groups: 0.9
  Vitality: difference between active food and placebo food groups: 4.8
Test A 200 mg, 8 w
  Everyday role function (mental): 52.7 ± 5.7
  Everyday role function (physical): 53.8 ± 4.0
  General health: 58.4 ± 7.4
  Mental health: 56.3 ± 7.3
  Physical function: 53.8 ± 6.1
  Vitality: 55.6 ± 8.3
Test A 200 mg, 12 W
  Body pain: difference between active food and placebo food groups: −0.3
  Everyday role function (mental): difference between active food and placebo food groups: 1.5
  Everyday role function (physical): difference between active food and placebo food groups: 2.1
  General health: difference between active food and placebo food groups: 0.2
  Mental health: difference between active food and placebo food groups: 3.5
  Physical function: difference between active food and placebo food groups: −1.0
  Social life function: difference between active food and placebo food groups: −1.1
  Vitality: difference between active food and placebo food groups: 5.4
Test A 200 mg, 12 w
  Everyday role function (mental): 53.7 ± 5.4
  Everyday role function (physical): 54.2 ± 4.2
  General health: 58.4 ± 6.5
  Mental health: 57.0 ± 5.9
  Physical function: 53.6 ± 7.2
  Vitality: 57.1 ± 6.7
[1]
  Body pain: difference between active food and placebo food groups: −0.7
  Everyday role function (mental): difference between active food and placebo food groups: −0.1
  Everyday role function (physical): difference between active food and placebo food groups: 1.3
  General health: difference between active food and placebo food groups: 0.0
  Mental health: difference between active food and placebo food groups: 0.3
  Physical function: difference between active food and placebo food groups: 0.5
  Social life function: difference between active food and placebo food groups: 2.1
  Vitality: difference between active food and placebo food groups: 2.9
  Everyday role function (mental): 52.6 ± 6.3
  Everyday role function (physical): 54.2 ± 4.3
  General health: 57.4 ± 7.4
  Mental health: 54.1 ± 8.4
  Physical function: 53.0 ± 6.1
  Vitality: 54.6 ± 7.6
Test A, after eight weeks of ingestion
  scores regarding everyday role function (physical), GABA group compared to the placebo group: significant improvement
Test A, after four weeks of ingestion
  scores regarding emotional health, GABA group compared to the placebo group: significant improvement
Test A, at least after four weeks of ingestion
  scores regarding energy, GABA group compared to the placebo group: significant improvement
Test B 100 mg, 4 W
  Body pain: difference between active food and placebo food groups: −0.3
  Everyday role function (mental): difference between active food and placebo food groups: 1.5
  Everyday role function (physical): difference between active food and placebo food groups: 2.3
  General health: difference between active food and placebo food groups: 1.2
  Mental health: difference between active food and placebo food groups: 3.3
  Physical function: difference between active food and placebo food groups: 1.8
  Social life function: difference between active food and placebo food groups: 0.9
  Vitality: difference between active food and placebo food groups: 3.0
Test B 100 mg, 4 w
  Everyday role function (mental): 53.0 ± 5.5
  Everyday role function (physical): 53.8 ± 4.2
  General health: 58.3 ± 7.4
  Mental health: 55.8 ± 5.8
  Physical function: 55.2 ± 3.7
  Vitality: 53.7 ± 7.6
Test B 100 mg, 8 W
  Body pain: difference between active food and placebo food groups: 0.9
  Everyday role function (mental): difference between active food and placebo food groups: 2.1
  Everyday role function (physical): difference between active food and placebo food groups: 3.4
  General health: difference between active food and placebo food groups: 1.2
  Mental health: difference between active food and placebo food groups: 3.3
  Physical function: difference between active food and placebo food groups: 2.2
  Social life function: difference between active food and placebo food groups: 3.2
  Vitality: difference between active food and placebo food groups: 4.0
Test B 100 mg, 8 w
  Everyday role function (mental): 53.7 ± 3.9
  Everyday role function (physical): 53.9 ± 3.5
  General health: 57.2 ± 7.5
  Mental health: 56.1 ± 5.8
  Physical function: 56.6 ± 2.4
  Vitality: 54.8 ± 7.2
Test B 100 mg, 12 W
  Body pain: difference between active food and placebo food groups: 1.8
  Everyday role function (mental): difference between active food and placebo food groups: 1.7
  Everyday role function (physical): difference between active food and placebo food groups: 1.0
  General health: difference between active food and placebo food groups: 1.0
  Mental health: difference between active food and placebo food groups: 2.9
  Physical function: difference between active food and placebo food groups: 1.3
  Social life function: difference between active food and placebo food groups: 0.6
  Vitality: difference between active food and placebo food groups: 2.8
Test B 100 mg, 12 w
  Everyday role function (mental): 53.9 ± 4.3
  Everyday role function (physical): 53.1 ± 4.2
  General health: 59.2 ± 6.2
  Mental health: 56.4 ± 5.6
  Physical function: 55.9 ± 3.1
  Vitality: 54.5 ± 7.4
[2]
  Body pain: difference between active food and placebo food groups: 1.3
  Everyday role function (mental): difference between active food and placebo food groups: 1.0
  Everyday role function (physical): difference between active food and placebo food groups: 0.7
  General health: difference between active food and placebo food groups: 0.1
  Mental health: difference between active food and placebo food groups: 2.7
  Physical function: difference between active food and placebo food groups: 3.0
  Social life function: difference between active food and placebo food groups: 3.7
  Vitality: difference between active food and placebo food groups: 2.7
  Everyday role function (mental): 53.7 ± 4.7
  Everyday role function (physical): 53.5 ± 3.9
  General health: 57.5 ± 7.1
  Mental health: 56.5 ± 5.4
  Physical function: 55.6 ± 3.5
  Vitality: 54.4 ± 7.6
Test B, after eight weeks of ingestion
  scores regarding physical function, GABA group compared to the placebo group: significant improvement

— US20260053764A1, “COMPOSITION FOR PREVENTING DETERIORATION IN COGNITIVE FUNCTION AND/OR IMPROVING COGNITIVE FUNCTION” (PHARMA FOODS INTERNATIONAL CO., LTD., priority 2020, published 2026)
